# Results from US20140096445A1, “METHOD OF CULTIVATION IN WATER DEFICIT CONDITIONS” (SYNGENTA PARTICIPATIONS AG, priority 2011, published 2014).
# What was measured:
# Format in all cases: in vivo
# corn [1] = experiment: SDI split plot field study, 113 day maturity corn hybrid, Examples 13-14; conditions: 50% irrigated deficit
# Method: A randomized complete block (split plot) study using Subsurface Drip Irrigation (SDI) was conducted on a deep silt loam soil using a 113 day maturity corn hybrid. This trial was conducted to quantify the impact of treatments on grain yield and water productivity of corn under limited (deficit) and fully-irrigated setting. The study utilized a subsurface drip irrigation (SDI) system with a nominal dripline flowrate of 0.25 gpm/100 ft for a 5-ft dripline spacing and 24-inch emitter spacing, installed at a depth of 16-18 inches. Irrigation control panels, chemical injection pumps, and filters were housed at the irrigation well house to manage irrigation and chemigation events.
# The field study was set up as a randomized complete plot design with three replications on silt loam soil.
# Each plot was 8 rows wide (6.1 meters) by 15 meters long. Soil water status was monitored throughout the growing season using soil moisture sensors. Corn seed was planted with a precision planter at a depth of 2 inches and rows spaced at 30 inches. The planting population was 30,000 seeds per acre. Testing parameters, and irrigation levels were conducted according to the Kansas State University experimental procedure [see, e.g.,: (1) Lamm, F. R., A. J. Schlegel, and G. A. Clark. 2003. Development of a Best Management Practice for Nitrogen Fertigation of Corn Using SDI. Appl. Engr in Agric. and (2) Lamm, F. R., H. L. Manges, L. R. Stone, A. H. Khan, and D. H. Rogers. 1995. Water requirement of subsurface drip-irrigated corn in northwest Kansas. Trans. ASAE, 38(2):441-448.]. Moisture levels, irrigation levels, evapotranspiration, and plant health were measured throughout the growing season. Climatic variables were measured (air temperature, rainfall, solar and net radiation, relative humidity, rainfall, wind speed and direction) throughout the season.
# Irrigation for the fully irrigated treatments was scheduled according to need by a climatic water budget using calculated evapotranspiration as a withdrawal and with rainfall and irrigation as deposits. Irrigation amounts for each event for the fully irrigated plots were generally 0.5 inches for each event. The deficit irrigation treatments were scheduled at approximately 50% of the fully irrigated plots (5.9 inches/acre vs. 13.55 inches of water/acre). Volumetric soil water content was measured in one-foot increments to a depth of 8 ft on an approximately weekly basis throughout the crop season to determine total water use. Crop water use was calculated as the sum of irrigation, precipitation and changes in soil water between the initial and final soil water sampling dates. Water productivity was calculated as the crop yield divided by the seasonal water use. Maintenance crop protection products were applied as needed to manage weeds and pests throughout the season for all treatments including the control. Moddus (trinexapac-ethyl) was foliar-applied (tractor mounted sprayer) twice at a rate of 250 gai/ha at approximately the V3+V7 stages of the corn. Azoxystrobin (Quadris) was applied twice via drip irrigation at a rate of 0.8 fl. oz/1000 linear ft (261 gai/ha) at approximately V6 & R1 stages of the corn. Crop yield from each replication was recorded after harvest and adjusted to 15% moisture content. Corn yield components of crop grain yield, plants/area, ears/plant, and kernel weight were measured by hand harvesting a representative sample (20 feet long for one crop row near the center of each subplot).
# corn [2] = experiment: SDI chemigation field study under dryland/rainfed conditions, Examples 15-16; conditions: 261 gai/ha, 0% irrigated rainfed/dryland
# soybean = experiment: Sprinkler irrigation field study on soybean yield and WUE, Table 14 (treatments 31-32)
# corn [3] = experiment: Sprinkler irrigation management field test, full vs deficit irrigation, Examples 9-10; conditions: 261 gai/ha, 60% irrigated deficit
# Method: A completely random test design (split plot) was conducted using Sprinkler Irrigation. This was an irrigation management test to study treatment effects on yield under full irrigation and deficit irrigation conditions. The field study was set up with four replications and tested on silt loam soil. Overhead sprinkler irrigation and overhead sprinkler chemigation was used in this study. Each plot was 4 rows wide (3 meters) by 9.1 meters long. Soil water status was monitored throughout the growing season using soil moisture sensors. Corn seed was planted with a precision planter at a depth of 2 inches and rows spaced at 30 inches. The planting population was 30,000 seeds per acre. Testing parameters, irrigation levels, and harvesting were conducted according to the University of Nebraska experimental procedure (see, e.g.,: Irmak, S, D. Z. Haman, and R. Bastug. Determination of Crop Water Stress Index for irrigation Timing and Yield Estimation of Corn. 2000. Agronomy Journal. 92:1221-1227). Moisture levels, irrigation levels, and plant health were measured throughout the growing season. Climatic variables were measured (air temperature, rainfall, solar and net radiation, relative humidity, rainfall, wind speed and direction) throughout the season. Irrigation for the fully irrigated treatments was scheduled according crop need based on soil water measurements. The deficit irrigation treatments were scheduled at approximately 60% of the fully irrigated plots (1.2 inches/acre vs. 2 inches of water/acre, respectively). Volumetric soil water content was measured on a weekly basis throughout the crop season to determine total water use. Maintenance crop protection products were applied as needed to manage weeds & pests throughout the season for all treatments including the control. Azoxystrobin (Quadris) was applied via overhead sprinkler irrigation at 261 grams active ingredient/hectare or by foliar application (tractor mounted sprayer) at 261 grams active ingredient/hectare at approximately V6 & R1 stages of the corn. Crop yield from each replication was recorded after harvest and adjusted to 15% moisture content.
# corn [4] = experiment: Subsurface drip irrigation (SDI) chemigation field study, limited (deficit) vs fully irrigated, Examples 1-2; conditions: 261 gai/ha, 50% irrigated deficit
# [5] = Azoxy 150 gai/ha foliar, 2 applications, alone or + Acibenzolar-S-methyl 10 gai/ha, 60% irrigated deficit
smiles,measurement,setting,value
"CCOC(=O)C1CC(=O)C(=C(O)C2CC2)C(=O)C1 (centres unmarked) [TXP, trinexapac-ethyl]",Yield,"corn [1]; 250 gai/ha, foliar-applied twice (V3+V7)",235 Bu./acre
same,% Yield Increase by Product over Untr./50% irr.,"corn [1]; 250 gai/ha, foliar-applied",+28% Incr. over
same,Water Prodctivity (IWUE),"corn [1]; 250 gai/ha, foliar-applied",462 pounds of corn per inch of water applied
"CO/C=C(/C(=O)OC)c1ccccc1Oc1cc(Oc2ccccc2C#N)ncn1 [Azoxystrobin, azoxystrobin]",Yield,corn [2]; SDI chemigated (V6 & R1),166.2 Bu./acre
same,Azoxystrobin % CWUE Increase over Untr./0% irr.,corn [2]; SDI chemigated,+142% incr over
same,Azoxystrobin % Yield Increase over Untr./0% irr.,corn [2]; SDI chemigated,+9.6% incr over
same,CWUE (crop water use efficiency),corn [2]; SDI chemigated,1.125 Bu./inch
same,Yield,corn [2]; foliar applied (V6 & R1),161.8 Bu./acre
same,Azoxystrobin % CWUE Increase over Untr./0% irr.,corn [2]; foliar applied,+108% incr over
same,Azoxystrobin % Yield Increase over Untr./0% irr.,corn [2]; foliar applied,+6.7% incr over
same,CWUE (crop water use efficiency),corn [2]; foliar applied,0.965 Bu./inch
same,% WUE Increase over the 100% irrigated Control,soybean; [5],11% Increase
same,Treatment % Yield Increase over 60% Untreated,soybean; [5],+6% Incr.
same,Treatment % Yield Increase over 100% Untreated,soybean; [5],+11% Incr.
same,WUE (water productivity),soybean; [5],4.1 bushels/acre-inch
same,Yield,soybean; [5],72 Bu./acre
same,"Yield compared with the untreated, in words",soybean; Azoxystrobin: foliar (2 applications) at 60% & 100% irrigated,significant differences in yield
same,"WUE differences, in words",soybean; water deficit regime,Good WUE differences
same,Yield,corn [3]; foliar-applied (V6 & R1),196 Bu./acre
same,Azoxystrobin % Yield Increase over 60% Untr.,corn [3]; foliar-applied,+3% Incr.
same,Azoxystrobin % Yield Increase over 100% Untr.,corn [3]; foliar-applied,+4% Incr.
same,Yield,corn [3]; sprinkler chemigated (V6 & R1),197 Bu./acre
same,Azoxystrobin % Yield Increase over 60% Untr.,corn [3]; sprinkler chemigated,+4% Incr.
same,Azoxystrobin % Yield Increase over 100% Untr.,corn [3]; sprinkler chemigated,+5% Incr.
same,Yield,"corn [1]; 261 gai/ha, SDI chemigated twice (V6 & R1)",212^ Bu./acre
same,% Yield Increase by Product over Untr./50% irr.,"corn [1]; 261 gai/ha, SDI chemigated",+16% Incr. over
same,% increase in Water Productivity by Product over 50% irr.,"corn [1]; 261 gai/ha, SDI chemigated",+18% Incr.
same,Water Prodctivity (IWUE),"corn [1]; 261 gai/ha, SDI chemigated",426 pounds of corn per inch of water applied
same,Yield,corn [4]; SDI chemigated twice (V8 & V8+14da.),217 Bu./acre
same,Azoxystrobin % IWUE Increase over Untr./50% Irr.,corn [4]; SDI chemigated,+40% incr.
same,Azoxystrobin % IWUE Increase over Untr./100% irr.,corn [4]; SDI chemigated,+114% incr.
same,Azoxystrobin % Yield Increase over Untr./50% Irr.,corn [4]; SDI chemigated,+11% incr.
same,Azoxystrobin % Yield Increase over Untr./100% irr.,corn [4]; SDI chemigated,+2.4% incr.
same,IWUE (irrigation water use efficiency),corn [4]; SDI chemigated,22.9 Bu./inch
same,Azoxystrobin % IWUE Increase over Untr./100% irr.,"corn [4]; SDI chemigated, listed as Quadris",114%
same,Yield,corn [4]; foliar applied twice (V8 & V8+14da.),211 Bu./acre
same,Azoxystrobin % IWUE Increase over Untr./50% Irr.,corn [4]; foliar applied,+29% incr.
same,Azoxystrobin % IWUE Increase over Untr./100% irr.,corn [4]; foliar applied,+97% incr.
same,Azoxystrobin % Yield Increase over Untr./50% Irr.,corn [4]; foliar applied,+11% incr.
same,Azoxystrobin % Yield Increase over Untr./100% irr.,corn [4]; foliar applied,+0% incr. over
same,IWUE (irrigation water use efficiency),corn [4]; foliar applied,21.1 Bu./inch
